Where “and” joins values, the source holds several entries; their conditions need not be identical. Equal entries are not always repeated. Where two headings read alike, the source gives them in different places. Non-standard residues stand in square brackets, D forms with d. Residues, ends and D or L forms follow the SMILES beside them.
Legend:
mice = conditions: administered to mice; Goerne et al 1982; cited from earlier work
hot-plate test = conditions: injected into the brain; Herman et al 1985; cited from earlier work
[1] = test system: hyperalgesia evoked by IL-1β; conditions: cited from earlier work
[2] = test system: hyperalgesia evoked by PGE₂; assay: Rat paw pressure test: hyperalgesia evoked by PGE₂; set-up: species or system rats; conditions: in vivo
Method: (§1) Hyperalgesia was evaluated by the application of a constant pressure of 20 mmHg to the hind paws of rats (Wistar strain, male, weight 135 - 170g) which was discontinued when animals presented a characteristic freezing reaction (reaction time). The intensity of hyperalgesia was quantified as the variation of the reaction time (Δ reaction time, sec) obtained by subtracting the value measured 1,2,3 or 4h after administration of the hyperalgesic agent from the pre-injection control reaction time (zero time). The experimenter was unaware of the group treatments.
(§2) There were 5 animals per treatment group. […]

[3] = test system: hot plate (55°C) reaction time; assay: Standard hot plate (55°C) test; conditions: in vivo
Method: A standard hot plate (55°C) test was carried out. […]

[4] = test system: hyperalgesia evoked by DbcAMP; assay: Rat paw pressure test: hyperalgesia evoked by DbcAMP; set-up: species or system rats; conditions: in vivo
Method: as §1
The effect of the tripeptides KPV and K(D)PV on hyperalgesia evoked in rats by DbcAMP was studied. Treatments were given ip, 1h before DbcAMP was injected into the paw (ipl). There were 5 animals per treatment group. Delta reaction times were measured 3h after DbcAMP. […] The control was DbcAMP (100»g/paw). […]

gastric lesions = assay: Gastric lesions after treatment; assay type: in vivo, mice; conditions: 32 mg/kg
[5] = test system: human blood mononuclear cells (MNC); assay: PGE₂ release by blood mononuclear cells, radioimmunoassay; assay type: cell-based; conditions: in words
Method: The effect of K(D)PT and indomethacin on PGE₂ release by human blood mononuclear cells (MNC) was investigated. The MNC were isolated from buffy coat residues by density gradient centrifugation (Ficoll-hypaque, Sigma) and resuspended in RPMI 1640 culture medium (Gibco) + 2% inactivated foetal calf serum (Imperial Laboratories). […] Values are means of quadruplicates ± s.e.m.'s. PGE₂ concentrations were measured by radioimmunoassay (NEN Research Products).

[6] = test system: hyperalgesia evoked by IL-1β; assay: Modified Randall-Sellito rat paw pressure test: hyperalgesia evoked by IL-1β; assay type: in vivo, rats; conditions: 100 »g ipl, 30 minutes before 0.05U IL-1β ipl or ip
Method: as §1, §2

Molecule: Arg-Pro
- hyperalgesia on administration (mice): evoke hyperalgesia

Molecule: Lys-Pro
- antinociceptive action in a hot-plate test (hot-plate test): elicited antinociceptive action
- hyperalgesia on administration (mice): evoke hyperalgesia

Molecule: Cc1c(N(C)CS(=O)(=O)O)c(=O)n(-c2ccccc2)n1C [dipyrone]
- antagonism of on-going hyperalgesia ([1]; general statement on known analgesics, no data): able to antagonise on-going hyperalgesia

Molecule: CN1CC[C@]23c4c5ccc(O)c4O[C@H]2[C@@H](O)C=C[C@H]3[C@H]1C5 [Morphine, morphine]
- antagonism of on-going hyperalgesia ([1]; rat, in vivo): able to antagonise on-going hyperalgesia
- change of delta reaction time vs control (= 100%) [2]: -63.7%
- delta reaction time [2]: 6.1 ± 0.8 s
- reaction time difference, hot plate (55°C) [3]: 3.52 s and 5.55 s
- antagonism of hyperalgesia evoked by DbcAMP [4]: effective antagonist
- change of delta reaction time vs control (= 100%) [4]: -64.0%
- delta reaction time [4]: 6.2 ± 0.4 s

Molecule: C[C@@H](O)[C@H](NC(=O)[C@H]1CCCN1C(=O)[C@@H](N)CCCCN)C(=O)O [K(D)PT, Lys-D-Pro-Thr] (H-Lys-[dP]-Thr-OH)
- gastric lesions (gastric lesions): No lesions were observed

Molecule: COc1ccc2c(c1)c(CC(=O)O)c(C)n2C(=O)c1ccc(Cl)cc1 [Indomethacin, indomethacin]
- effect on production of PGE₂ by MNC [5]: abolished PGE₂ production
- effect of pretreatment on hyperalgesic response, contralateral paws (CL) [6]: no effect
- effect of pretreatment on hyperalgesic response, treated paws (I) [6]: markedly attenuated
